The subject of data set [1] is 5-hydroxytryptamine-induced bronchoconstriction. In words: bronchodilator potency in anaesthetised artificially respired guinea pig (Konzett-Rossler preparation). The following applies: inhibition of 5-hydroxytryptamine-induced bronchoconstriction. The data set is classed as in vivo.
Data set [2] has as its system genetically obese mice. In words: carcass lipid of genetically obese mice after daily oral dosing for 28 days (anti-obesity). As to conditions: for g - lipid per mouse, Treated: daily for 28 days; for anti-obesity activity (in words): general statement, no dose given. The data set is classed as in vivo, mouse (genetically obese). The protocol:
(i) The compounds and a comparison compound (salbutamol) were dosed daily in water or carboxymethylcellulose suspension to genetically obese mice by oral gavage for 28 days. At the end of that time the carcass composition was determined.

The test system of data set [3] is blood glucose. In words: hypoglycaemic activity: reduction in area under blood glucose curve after glucose load in fasted mice. The following applies: for inhibition in vivo at 5 mg/kg: Mus musculus, po, 2 h; for anti-hyperglycaemic activity (in words): general statement, no dose given. The data set is classed as in vivo, female CFLP mice. How it is done: Female CFLP mice, weighing approximately 25 g, were fasted for 24 hours prior to the study. The compounds under study were dosed orally (20 mg and 5 mg/kg) to each of 8 mice. 30 minutes later a blood sample ([…]) was obtained from the tail for the analysis of blood glucose. Immediately after taking this blood sample, each mouse was given a glucose load (1 g/kg body weight sub-cutaneously). Blood samples were then obtained from each mouse at 30 minute intervals for 120 minutes.
Compounds that produced a significant (P<0.05) reduction of blood glucose, compared with control mice given water, at any time interval were considered active. The area under the blood glucose curve over the 2 hour period after giving the glucose load was calculated for each compound and compared with the value for control animals. Thus a compound would give a 100% reduction in the area under the blood glucose curve if the blood glucose was maintained at the same level as in untreated fasted animals. Reduction in the glucose curve of more than 100% indicate that a compound, in spite of being given a glucose load, maintained blood glucose levels below that found in control fasted mice.

Data set [4] has as its system CFLP mice. In words: acute toxicity, single lethal dose. The format is in vivo. As to conditions: po. The source says:
Other compounds of the invention have similar low toxicities.

The nature of data set [5]: relative potency / activity (test not specified).
Setting [6] is: 5 mg/kg po, 30 min before glucose load 1 g/kg sc, 2 hour period, versus control mice.
Setting [7] is: 10 mg/kg po, control 18.3 ± 0.6 (Ex. 7), 16.5 ± 0.7 (Ex. 16, 21).

Regarding `COC(=O)c1ccc(CC(C)NCC(O)c2ccc(O)c(CO)c2)cc1` (stereo not drawn) [Example 1], the “bronchodilator potency relative to salbutamol” value in data set [1] is “one twelfth as potent as salbutamol”. Moreover, the “g - lipid per mouse, Treated” value in data set [2] (8 mg/kg po, control 23.3 ± 0.7) is recorded as 20.8 ± 0.7 g. Besides, in data set [2], the “anti-obesity activity (in words)” value is listed as “particularly worthy of mention in view of their anti-obesity activity”. In addition, in data set [3] (setting [6]), the inhibition in vivo at 5 mg/kg came to 157%. Besides, the “anti-hyperglycaemic activity (in words)” value in data set [3] is “particularly worthy of mention in view of their anti-hyperglycaemic activity”. In addition, the single lethal dose in data set [4] is given as > 900 mg/kg.
With `COC(=O)c1ccc(CCCC(C)NCC(O)c2ccc(O)c(CO)c2)cc1` (stereo not drawn) [Example 17], the “g - lipid per mouse, Treated” value in data set [2] (11 mg/kg po, control 18.9 ± 0.66 (Ex. 12), 17.0 ± 0.67 (Ex. 17)) is listed as 14.0 ± 0.97 g. Besides, the “anti-obesity activity (in words)” value in data set [2] is recorded as “particularly worthy of mention in view of their anti-obesity activity”. The inhibition in vivo at 5 mg/kg in data set [3] (setting [6]) is 84%. The “anti-hyperglycaemic activity (in words)” value in data set [3] is “particularly worthy of mention in view of their anti-hyperglycaemic activity”.
Regarding `COC(=O)c1ccc(CC(C)NCC(O)c2ccccc2)cc1` (stereo not drawn) [Example 22, N-(2-[4-Carbomethoxyphenyl]-1-methylethyl)-2-hydroxy-2-phenylethanamine], in data set [2] (9 mg/kg po, control 18.9 ± 0.66), the “g - lipid per mouse, Treated” value is listed as 13.9 ± 0.65 g. Further, the “anti-obesity activity (in words)” value in data set [2] is “particularly worthy of mention in view of their anti-obesity activity”. The inhibition in vivo at 5 mg/kg in data set [3] (setting [6]) stood at 172%. The “anti-hyperglycaemic activity (in words)” value in data set [3] was “particularly worthy of mention in view of their anti-hyperglycaemic activity”.
Regarding `COC(=O)c1ccc(CCC(C)NCC(O)c2ccc(O)c(CO)c2)cc1` (stereo not drawn) [Example 7], in data set [2] (setting [7]), the “g - lipid per mouse, Treated” value was found to be 14.3 ± 0.4 g. Moreover, the “anti-obesity activity (in words)” value in data set [2] is given as “particularly worthy of mention in view of their anti-obesity activity”. Moreover, the inhibition in vivo at 5 mg/kg in data set [3] (setting [6]) is 110%. Further, the “anti-hyperglycaemic activity (in words)” value in data set [3] was “particularly worthy of mention in view of their anti-hyperglycaemic activity”.
With `COC(=O)c1ccc(CC(C)NCC(O)c2ccc(O)c(CO)c2)cc1` (stereo not drawn) [21 (mp 140.5-143.5°), N-[2-(4-carbomethoxyphenyl)-1-methylethyl]-2-hydroxy-2-(4-hydroxy-3-hydroxymethylphenyl) ethanamine], the “g - lipid per mouse, Treated” value in data set [2] (setting [7]) was 12.7 ± 0.8 g. In addition, in data set [3] (setting [6]), the “Reduction in area under blood glucose curve (%)” value was found to be 153%.
Regarding `COC(=O)c1ccc(CC(C)NCC(O)c2ccc(O)c(CO)c2)cc1` (stereo not drawn) [21 (higher melting), N-[2-(4-carbomethoxyphenyl)-1-methylethyl]-2-hydroxy-2-(4-hydroxy-3-hydroxymethylphenyl) ethanamine], in data set [2], the “anti-obesity activity (in words)” value was “particularly worthy of mention in view of their anti-obesity activity”. The “anti-hyperglycaemic activity (in words)” value in data set [3] was “particularly worthy of mention in view of their anti-hyperglycaemic activity”. For the same molecule, in data set [5], the “relative potency / activity (in words)” value is “more potent diastereoisomer”.
Consider `COC(=O)c1ccc(CC(C)NCC(O)c2ccccc2)cc1` (stereo not drawn) [Example 59 (mp 83°-4°), N-[2-(4-carbomethoxyphenyl)-1-methylethyl]-2-hydroxy-2-phenylethanamine], for which, in data set [5], the “relative potency / activity (in words)” value is “more potent diastereoisomer”.

Broadly, the inhibition in vivo is the drop in the measured response relative to a control, in per cent.

These data come from US4478849A, “Secondary amines, their preparation and use in pharmaceutical compositions” (Beecham Group Limited, priority 1978, dated 1984).
